Results: patent EP2905286A1, “Novel diazabicyclohydrocarbon-Pt complexes and the use thereof as pharmaceuticals” (Studiengesellschaft Kohle mbH, priority 2014, dated 2015)

What was measured:
A2780 = assay: MTT cell viability assay; assay type: cell-based; conditions: A2780 cells, 72 h incubation
Experimental: (§1) The rate of cell-survival under the action of test compounds was evaluated by an improved MTT assay as previously described for 3-(4,5-dimethylthiazol-2-yl)-2,5-diphenyltetrazolium bromide (MTT, Applichem, Germany) (Mueller, H., Kassack, M. U., Wiese, M. J. Biomol. Screen. 2004, 9, 506-515).
(§2) The assay is based on the ability of viable cells to metabolize yellow MTT to violet formazane crystals that can be detected spectrophotometrically. In brief, A2780 (ECACC, Salisbury, UK) and A2780 CisR cells (established by exposure of A2780 cells to weekly cycles of 2 µmol/L cisplatin over a period of 24 weeks) were seeded at a density of 8,000 cells/well in 96well plates (Corning, Germany) in 90 µL drug-free complete medium. After an incubation period of 24 h at 37 °C under humidified air supplemented with 5% CO2, cells were exposed to dilutions of the test compounds in 100 µL/well. Stock solutions were prepared in a concentration of 10^-2 M in water, and serial dilutions were prepared by using sodium chloride 0.9%. Incubation was ended after 72 h and cell survival was determined by addition of 25 µL/well MTT solution (5 mg/mL in phosphate buffered saline). After an incubation period of 10 min at 37 °C, the medium was carefully removed. The intracellular formazan product was solubilized by adding 75 µl DMSO/well. Absorbance was measured at 544 nm and 690 nm with a FLUOstar microplate-reader (BMG LabTech, Offenburg, Germany). The absorbance of untreated control cells was taken as 100% viability. All tests were performed in triplicate.
(§3) Indicated are mean values ± standard error of the mean. Concentration/inhibition curves were fitted to the data by nonlinear regression analysis using the four parameter logistic equation (GraphPad Prism).

A2780 CisR cells = assay: MTT cell viability assay, cisplatin resistance model; assay type: cell-based; conditions: for IC50: A2780 CisR cells, 72 h incubation, MTT; for resistance factor: ratio of IC50 in A2780 CisR cells to IC50 in parental A2780 cells
Experimental: as §1, §2, §3
Values are means ± SEM derived from a representative experiment performed in triplicate. The resistance factor was calculated as the ratio of the IC50 value of the A2780 CisR cells and the IC50 value of the corresponding sensitive parental A2780 cell line.

[1] = Solubility observed during preparation; assay type: physicochemical; conditions: for solubility in solvents in general: most or all solvents (ambient temperature, including CH2Cl2 and THF; including DMSO)

N.N.[Cl][Pt][Cl] [cisplatin, cis-(NH3)2PtCl2, reference compound]
IC50 (A2780): 1.38 µM

C1NCC2CNCC1C2.[Cl][Pt][Cl] [1a, (C7H14N2)PtCl2]
IC50 (A2780): 4.2 µM | IC50 (A2780 CisR cells): 10.6 µM | resistance factor (A2780 CisR cells): 2.52 | solubility in DMF [1]: dissolve increasingly well | solubility in DMSO [1]: dissolve increasingly well | solubility in solvents in general [1]: insoluble in most solvents | solubility in water [1]: dissolve increasingly well

C1NCC2CNCC1C2.O=C1[O][Pt][O]C1=O [compound 3, (C7H14N2)Pt(C2O4)]
IC50 (A2780): 7.24 µM | IC50 (A2780 CisR cells): 35.3 µM | resistance factor (A2780 CisR cells): 4.88

O=C([O-])C1(C(=O)[O-])CCC1.OC1(O)C2CNCC1CNC2.[Pt+2] [compound 6, (Bispidin-9,9-diol)platinum(II)(1,1-cyclobutanedicarboxylate)]
solubility in DMF [1]: dissolves well | solubility in DMSO [1]: dissolves well | solubility in water [1]: dissolves well

C1NCC2CNCC1C2.O=C1[O][Pt][O]C(=O)C12CCC2 [2a, (C7H14N2)Pt{(O2C)2C4H6}]
IC50 (A2780): 8.84 µM | IC50 (A2780 CisR cells): 57.1 µM | resistance factor (A2780 CisR cells): 6.46 | solubility in DMF [1]: poor | solubility in water [1]: more soluble in water than the dichloride 1

O=C1[O][Pt]2([NH][C@@H]3CCCC[C@H]3[NH]2)[O]C1=O (relative stereo) [oxaliplatin, trans-(R,R)-1,2-diamino-cyclohexane platinum(II)oxalate, reference compound]
IC50 (A2780): 0.21 µM | IC50 (A2780 CisR cells): 0.95 µM | resistance factor (A2780 CisR cells): 4.52

N.N.O=C([O-])C1(C(=O)[O-])CCC1.[Pt+2] [carboplatin, reference compound]
IC50 (A2780): 4.23 µM | IC50 (A2780 CisR cells): 40.2 µM | resistance factor (A2780 CisR cells): 9.50

[Cl][Pt]1([Cl])[N]2CC3C[N]1CC(C2)C31OCCO1 [compound 4, (Spiro[bispidin-9,2'-[1,3]dioxolane])platinum(II)dichloride]
solubility in solvents in general [1]: insoluble in all solvents, including DMSO

C1NCC2CNCC1C2.CN(C)C=O.[Cl][Pt][Cl] [1b, (C7H14N2)PtCl2·DMF]
solubility in DMF [1]: dissolve increasingly well | solubility in DMSO [1]: dissolve increasingly well | solubility in solvents in general [1]: insoluble in most solvents | solubility in water [1]: dissolve increasingly well
